The values below come from ChEMBL document CHEMBL5370534, “Discovery of novel triazine derivatives as potent retinoic acid receptor-related orphan receptor γt (RORγt) inverse agonists” (Eur J Med Chem, 2023).

The structures appear in SMILES notation.

Tested on in the first data set: not listed separately
The data set can be described thus: Half life in mouse liver microsomes at 1 mM in presence of NADPH by HPLC-MS/MS analysis. Details: dose or concentration left out as unconfirmed.
Conditions: not given
For orientation: Microsomes from liver hold many membrane-bound enzymes, among them those of drug oxidation.
For `O=C(O)c1ccc(Nc2nc(Oc3c(Cl)cccc3Cl)nc(-c3ccc(C(F)(F)F)cc3)n2)cc1`, the half-life was over 145 min.
Regarding `CC(=O)Nc1ccc(Nc2nc(Oc3c(Cl)cccc3C(F)(F)F)nc(-c3ccc(C(F)(F)F)cc3)n2)cc1`, the half-life came out at 17.8 min.

A further data set concerns Mus musculus. Nature of the data set: Antiinflammatory activity against imiquimod-induced psoriasis BALB/c mouse model assessed as reduction in psoriasis symptoms at 0.4 mg/kg, po qd for 7 days. Conditions: 168 h, read-out: INH.
For `CN(Cc1cnc2nc(N)nc(N)c2n1)c1ccc(C(=O)N[C@@H](CCC(=O)O)C(=O)O)cc1` [METHOTREXATE], the inhibition in vivo at 0.4 mg/kg stood at 53.1%.

The next data set deals with T1, Nuclear receptor ROR-gamma (Homo sapiens, UniProt P51449).
T1 sequence (P51449 whole entry): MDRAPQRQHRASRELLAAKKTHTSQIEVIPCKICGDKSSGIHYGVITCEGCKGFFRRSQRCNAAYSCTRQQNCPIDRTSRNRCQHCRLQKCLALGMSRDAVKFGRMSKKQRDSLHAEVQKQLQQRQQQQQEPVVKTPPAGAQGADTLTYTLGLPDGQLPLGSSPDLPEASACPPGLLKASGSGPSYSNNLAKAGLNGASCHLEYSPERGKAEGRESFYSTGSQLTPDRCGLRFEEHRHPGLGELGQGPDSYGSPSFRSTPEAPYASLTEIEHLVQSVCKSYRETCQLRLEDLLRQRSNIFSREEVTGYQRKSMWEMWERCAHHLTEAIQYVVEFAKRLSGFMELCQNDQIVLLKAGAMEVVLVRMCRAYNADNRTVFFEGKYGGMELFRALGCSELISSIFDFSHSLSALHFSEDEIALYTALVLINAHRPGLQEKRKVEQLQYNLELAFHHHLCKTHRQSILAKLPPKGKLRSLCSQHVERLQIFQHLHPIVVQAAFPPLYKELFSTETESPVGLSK
Conditions: not given
Molecule `COc1ccc(-c2nc(Nc3ccc(C(N)=O)cc3)nc(Oc3c(Cl)cccc3Cl)n2)cc1` came in with an IC50 of 0.0133 µM.
In the case of `CC(C)(C)c1ccc(-c2nc(Nc3ccc(C(=O)O)cc3)nc(Oc3c(Cl)cccc3Cl)n2)cc1`, the IC50 stood at 0.0995 µM.
For `Cc1cccc(-c2nc(Nc3ccc(C(=O)O)cc3)nc(Oc3c(Cl)cccc3Cl)n2)c1`, inhibition was half-maximal at 0.241 µM (IC50).
Molecule `CNC(=O)c1ccc(Nc2nc(Oc3c(Cl)cccc3C(F)(F)F)nc(-c3ccc(OC)cc3)n2)cc1` came in with an IC50 of 0.0167 µM.
Same read-out and setting: in the case of `O=C(O)c1ccc(Nc2nc(Oc3c(Cl)cccc3Cl)nc(-c3ccc(F)cc3)n2)cc1` it was 0.152 µM.
Regarding `COc1ccc(-c2nc(Nc3cccc(C(=O)O)c3)nc(Oc3c(Cl)cccc3Cl)n2)cc1`, the IC50 stood at 0.091 µM.
With `O=C(O)c1ccc(Nc2nc(Oc3c(Cl)cccc3Cl)nc(C3CCCC3)n2)cc1`, the midpoint of inhibition, the IC50, lay at 3.42 µM.
In turn, `COc1ccc(-c2nc(NC3CCC(C(=O)O)C3)nc(Oc3c(Cl)cccc3Cl)n2)cc1` (stereo unspecified) gave an IC50 of 0.822 µM.
`CNS(=O)(=O)c1ccc(Nc2nc(Oc3c(Cl)cccc3Cl)nc(-c3ccc(OC)cc3)n2)cc1` yielded an IC50 of 0.0325 µM.
The molecule `O=C(O)c1ccc(Nc2nc(Oc3c(Cl)cccc3Cl)nc(-c3ccc(C(F)(F)F)cc3)n2)cc1` had an IC50 of 0.0686 µM.
`CC(=O)Nc1ccc(Nc2nc(Oc3c(Cl)cccc3C(F)(F)F)nc(-c3ccc(C(F)(F)F)cc3)n2)cc1` gave an IC50 of 0.032 µM.
Regarding `O=C(O)c1ccc(Nc2nc(Oc3c(Cl)cccc3Cl)nc(C3CCCCC3)n2)cc1`, the IC50 was determined as 0.596 µM.
In turn, `Cc1ccc(-c2nc(Nc3ccc(C(=O)O)cc3)nc(Oc3c(Cl)cccc3Cl)n2)cc1` displayed an IC50 of 0.0617 µM.
In turn, `COc1ccc(-c2nc(Nc3ccc(C(C)C(=O)O)cc3)nc(Oc3c(Cl)cccc3Cl)n2)cc1` (stereo unspecified) registered an IC50 of 0.0995 µM.
`COc1ccc(-c2nc(Nc3ccc(C(=O)O)c(O)c3)nc(Oc3c(Cl)cccc3Cl)n2)cc1` gave an IC50 of 0.083 µM.
As for `CNC(=O)c1ccc(Nc2nc(Oc3c(Cl)cccc3Cl)nc(-c3ccc(OC)cc3)n2)cc1`, the IC50 is 0.0129 µM.
On to `CNC(=O)c1ccc(Nc2nc(Oc3c(Cl)cccc3Cl)nc(-c3ccc(C(F)(F)F)cc3)n2)cc1`, for which the half-inhibitory concentration (IC50) was determined as 0.0225 µM.

Another data set has as its target T1, Nuclear receptor ROR-gamma.
Conditions: not given
This is another data set of the same source.
The molecule `O=C(O)c1ccc(Nc2nc(Oc3c(Cl)cccc3Cl)nc(-c3ccc(C(F)(F)F)cc3)n2)cc1` registered an IC50 of 1.62 µM.

For orientation: half-life means the time in which the quantity being followed falls by half. Usually IC50 stands for the midpoint of a concentration-inhibition curve.
